Here are results for three compounds from patent US11866416B2, “Streptococcus mutans glucosyl transferase inhibitors for dental caries therapy” (UAB Research Foundation, priority 2018, dated 2024).

The target of data set [1] is GtfB catalytic domain (Streptococcus mutans serotype c (strain ATCC 700610 / UA159), UniProt P08987). Description: OctetRed96 binding kinetics, GtfB. As to conditions: 1:1 binding model. The text has this: To determine if the inhibition is attributed by the binding of the lead compound to the enzymes, the OctetRed96 system was used to characterize protein-small molecule binding kinetics. The his-tagged catalytic domains of GtfB and GtC were immobilized separately onto an anti-penta-HIS (HIS1K) biosensor which consists of high affinity, high specificity penta-his antibody pre-immobilized on a fiber optic biosensor. This sensor was then exposed to varying concentrations of #G43.
Expression and purification of GtfB and GtfC catalytic domains. The DNA fragment coding for either GtfB catalytic (residues 268 aa-1074 aa) or GtfC-catalytic (residues 295 aa-1103 aa) was PCR amplified with primer sets of GtfB-BamH1-F and GtfB-Xho1-R, GtfC-BamH1-F and GtfC-Xhol1-R respectively using S. mutans genomic DNA as a template. Each amplified fragment was cloned into pET-sumo vector respectively and transformed in Escherichia coli BL21(DE3). The recombinant strain grown to OD600=0.8 in LB medium was induced with 0.1 mM IPTG at 18° C. overnight. Cell lysates prepared form the overnight grown E. coli cells were subjected to protein purification using HiTrap™ Column (Ni^2+ affinity) followed by gel filtration experiments as described (Zhu, F. et al. Structural and functional analysis of a new subfamily of glycosyltransferases required for glycosylation of serine-rich streptococcal adhesins. The Journal of biological chemistry 286, 27048-27057, doi:10.1074/jbc.M110.208629 (2011); Zhang, H. et al. The highly conserved domain of unknown function 1792 has a distinct glycosyltransferase fold. Nature communications 5, 4339, doi:10.1038/ncomms5339 (2014)).
Octet Red analysis. Octet full kinetic binding analysis was performed for binding of #G43 to GtfB and GtfC. The rate constant, KD, was determined using the Octet® Red96 system (ForteBio, Menlo Park, Calif.). Phosphate buffer with 3.5% (w/v) DMSO was used. The proteins were captured on dip-and-read Anti-Penta-HIS (HIS1K) Biosensor. These consist of high affinity, high specificity Penta-His antibody from Qiagen pre-immobilized on a fiber optic biosensor. The binding of #G43 at 3-fold serial dilutions in phosphate buffer from 200, 66.6, 22.2, 7.4, 2.5 to 0 μM was assessed. The ForteBio Octet analysis software (ForteBio, Menlo Park, Calif.) was used to generate the sensorgram and the accuracy of the analysis.
OctetRed analysis. […] GtfC and GtfB were purified. The Octet® Red96 system (ForteBio, Menlo Park, Calif.) was used to determine the rate constant, KD. […] Sensorgrams and the accuracy of the analysis was calculated using the ForteBio OctetRed analysis software (ForteBio, Menlo Park, Calif.).

Data set [2] concerns S. mutans biofilm. The data set can be described thus: S. mutans biofilm formation and inhibition assay (96-well plates, crystal violet). It counts as cell-based, Streptococcus mutans. As to conditions: for IC50: Streptococcus mutans.
In data set [3] the test system is S. mutans Gtfs. Description: Gtf zymographic assay with SDS-PAGE. The class given is biochemical, Streptococcus mutans. The protocol:
A well-established zymographic assay was used to determine enzymatic activity of Gtfs (Mattos-Graner et al. (2004) J. Clin. Microbiol. 42, […]). In brief, overnight S. mutans UA159 cultures were diluted 1:100 in fresh 5 mL THB with 50 μL of selective compounds at a series of concentrations. Treated bacteria were grown to OD470 of 1.0, and spun down by centrifugation at 4° C., and culture supernatants were collected and filtered through a 0.22-μm-pore-size filter membrane to remove residual bacterial cells and dialyzed at 4° C. against 0.02 M sodium phosphate buffer (pH 6.8), with 10 μM phenylmethylsulfonyl fluoride (PMSF), followed by a second dialysis against 0.2 mM sodium phosphate containing 10 μM PMSF. After dialysis, 4 mL of samples were concentrated to 40 μL by 100K Amicon Ultra-4 centrifugal filter (Merck Millipore Ltd.). For electrophoresis and zymographic analysis, 10 μL of each concentrated culture supernatant was applied to 8% SDS-PAGE in duplicate. One gel was used for protein staining with Coomassie blue dye, while the other one was subjected to zymographic assay as described (Mattos-Graner et al. (2004) J. Clin. Microbiol. 42, […]). The resultant white opaque glucan bands were visualized against a black background.
Inhibition of the activity of Gtfs determined by zymographic assays. Well established zymographic assay was used to determine enzymatic activity of Gtfs. In brief, overnight S. mutans UA159 cultures were diluted 1:100 in fresh 5 mL THB. Bacteria were grown to OD470 of 1.0, and spun down by centrifugation at 4° C. and culture supernatants were collected and filtered through a 0.22-μm-pore-size filter membrane to remove residual bacterial cells and dialyzed at 4° C. against 0.02 M sodium phosphate buffer (pH 6.8), with 10 μM phenylmethylsulfonyl fluoride (PMSF), followed by a second dialysis against 0.2 mM sodium phosphate containing 10 μM PMSF. After dialysis, 4 mL of samples were concentrated to 40 μL by 100K Amicon Ultra-4 centrifugal filter (Merk Millipore Ltd.). For electrophoresis and zymographic analysis, 10 μL of each concentrated culture supernatant was applied to 8% SDS-PAGE in duplicate. One gel was used for protein staining with Coomassie blue dye, while the other one was subjected to zymographic assay. For zymogram analysis, following electrophoretic separation, gels were washed twice for 15 min each with renaturing buffer containing 2.5% Triton X-100. Gels were then incubated for 18 h at 37° C. with 0.2 M sodium phosphate buffer (pH 6.5) containing 0.2% dextran T70, 5% sucrose, and varying concentrations of the small molecule inhibitors. The reactions were stopped by washing gels with distilled water at 4° C. for 10 min, and digital images of the resultant white opaque glucan bands were visualized against a black background and captured using a digital camera.
Inhibition of the activity of Gtfs determined by zymographic assays. A well-established zymographic assay was used to determine enzymatic activity of Gtfs (Mattos-Graner, R. O., Napimoga, M. H., Fukushima, K., Duncan, M. J., Smith, D. J., J Clin Microbiol, 2004, 42, 4586). In brief, overnight S. mutans UA159 cultures were diluted 1:100 in fresh 5 mL THB with 50 μL of selective compounds at a series of concentrations. Treated bacteria were grown to OD470 of 1.0, and spun down by centrifugation at 4° C., and culture supernatants were collected and filtered through a 0.22-μm-pore-size filter membrane to remove residual bacterial cells and dialyzed at 4° C. against 0.02 M sodium phosphate buffer (pH 6.8), with 10 μM phenylmethylsulfonyl fluoride (PMSF), followed by a second dialysis against 0.2 mM sodium phosphate containing 10 μM PMSF. After dialysis, 4 mL of samples were concentrated to 40 μL by 100K Amicon Ultra-4 centrifugal filter (Merk Millipore Ltd.). For electrophoresis and zymographic analysis, 10 μL of each concentrated culture supernatant was applied to 8% SDS-PAGE in duplicate. […]

The subject of data set [4] is S. mutans colonization. Description: Sucrose-dependent Drosophila colonization model. The class given is in vivo. The settings on record: chalcones; 100 μM or 50 μM.
Description: Briefly, Gfp tagged S. mutans bacteria were infected into flies along with the treatment appropriate compound at 100 μM in a feeding-assay.
Mid-log phase THB cultures of Gfp-tagged (green fluorescent protein) S. mutans UA159 were spun down and resuspended in a solution containing 5% sucrose and 50 μM of the compound. 100 μL of resuspended cells were spotted onto a sterile filter that was placed on the surface of 5 mL of solidified 5% sucrose agar in a plastic vial. The vials were allowed to dry at room temperature for 30 minutes prior to addition of flies. Male Canton S flies (1-3 days old) were treated with antibiotics for 2 days and starved for 3 hours prior to the addition to vials supplied with S. mutans (10 flies per vial). The colonization of flies by Gfp-tagged strains were analyzed by Nikon elipse 90i microscope, equipped with an Epi-fluorescence and NIS elements AR imaging system.
The intensity of the fluorescence was measured in the guts of the flies fed with the Gfp tagged bacteria after 7 days of infection.
Cultures of Gfp-tagged (green fluorescent protein) S. mutans UA159 grown to middle log phase were spun down and re-suspended in a solution containing 5% sucrose and 50 μM of each compound. 100 μL of re-suspended cells were aliquoted onto a sterile filter that was placed on the surface of 5 mL of solidified 5% sucrose agar in a plastic vial. Upon the drying of the vials at room temperature for 30 min, the flies were introduced to the vessels. Male Canton S flies (1-3 days old) were treated with antibiotics for 2 days and starved for 3 h before the addition to vials supplied with S. mutans (10-14 flies per vial). Nikon elipse 90i microscope, equipped with an Epi-fluorescence and NIS elements AR imaging system was used to analyze the colonization of flies by Gfp-tagged strains.
Data set [5] has as its system S. mutans. The data set can be described thus: microbe, parasite or virus in culture. The class given is cell-based, Streptococcus mutans. As to conditions: for IC50: Streptococcus mutans, Table 7, synthesized analogs of compound 9, read-out: Growth IC50; for SI (selectivity index): Table 7, growth IC50 value divided by biofilm IC50 value. The gist of the method:
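Mid-exponential cultures (OD470 0.6) in THB were exposed to compound concentrations for 16 h, with growth read at OD470 and normalised to 1% DMSO control (100%). CFU/mL were also counted after 24 h at 37 °C and compared with the DMSO control.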

Setting [6] is: Table 7, synthesized analogs of compound 9, read-out: Biofilm IC50.
Where [7] appears, read: read-out: S. mutans biofilm IC50.

SMILES strings stand for the structures. Read-outs that look alike come from different tables or passages of the source.

Chain of GtfB catalytic domain (P08987 268-1074 limits assumed): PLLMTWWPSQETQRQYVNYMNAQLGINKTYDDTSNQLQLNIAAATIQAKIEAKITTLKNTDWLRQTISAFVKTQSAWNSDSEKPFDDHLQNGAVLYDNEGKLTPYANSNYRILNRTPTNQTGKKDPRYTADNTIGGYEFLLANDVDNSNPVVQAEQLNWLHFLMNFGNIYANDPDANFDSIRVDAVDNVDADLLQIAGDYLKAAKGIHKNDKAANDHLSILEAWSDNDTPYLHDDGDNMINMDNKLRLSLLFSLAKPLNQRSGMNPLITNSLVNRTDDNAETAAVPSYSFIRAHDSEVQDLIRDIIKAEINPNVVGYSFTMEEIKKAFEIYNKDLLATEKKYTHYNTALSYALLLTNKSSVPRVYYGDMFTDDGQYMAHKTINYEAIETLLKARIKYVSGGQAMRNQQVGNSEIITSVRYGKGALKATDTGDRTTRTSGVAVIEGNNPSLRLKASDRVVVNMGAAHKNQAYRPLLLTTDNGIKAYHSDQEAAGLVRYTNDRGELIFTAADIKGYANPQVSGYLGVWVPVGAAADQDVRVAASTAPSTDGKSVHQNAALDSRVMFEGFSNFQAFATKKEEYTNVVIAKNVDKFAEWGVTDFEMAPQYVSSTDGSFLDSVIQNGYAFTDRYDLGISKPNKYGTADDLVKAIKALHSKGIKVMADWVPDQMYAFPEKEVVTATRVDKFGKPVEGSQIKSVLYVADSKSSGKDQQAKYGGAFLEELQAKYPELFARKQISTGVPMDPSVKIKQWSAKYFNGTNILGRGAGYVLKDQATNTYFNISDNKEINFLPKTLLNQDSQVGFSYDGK

Turning to `O=C(Nc1ccccc1)c1cc2cc([N+](=O)[O-])ccc2s1` [#G43-D], the Kd in data set [1] was determined as 68 µM. The “inhibition of S. mutans biofilms, biofilm assay and fluorescence microscopy” value in data set [2] (concentrations up to 200 μM) is “did not inhibit”. The “glucan bands in zymographic assay” value in data set [3] (50 μM, Gtfs from S. mutans UA159 supernatants) is on record as “significantly reduced the ability to inhibit the glucan production”.
`O=C(/C=C/c1ccc(O)cc1O)c1cccc(O)c1` [Compound 9a, (E)-3-(2,4-Dihydroxyphenyl)-1-(3-hydroxyphenyl)-2-propen-1-one] showed a melting point of 73 to 75 °C. The “fluorescence of Gfp tagged S. mutans in fly guts after 7 days” value in data set [4] is listed as “marked reduction in fluorescence”. The half-inhibitory concentration (IC50) in data set [2] (setting [6]) worked out at 68 ± 3 µM. In data set [2] (setting [7]), the IC50 worked out at 68 µM. For the same compound, the “Gtf enzyme inhibitory activity, glucan bands in zymogram” value in data set [3] (50 μM added to cultures) is given as “did not exhibit a drastic effect”. In addition, in data set [5], the “selectivity (index / fold) for biofilm over growth” value is “about 10”, the IC50 turned out to be 639 ± 25 µM and the “SI (selectivity index)” value was found to be 9.39.
The compound `O=C(/C=C\c1ccc(O)cc1O)c1cccc(O)c1` [Compound 9b, (Z)-3-(2,4-Dihydroxyphenyl)-1-(3-hydroxyphenyl)-2-propen-1-one] showed a melting point of 164 to 167 °C. Further, the “fluorescence of Gfp tagged S. mutans in fly guts after 7 days” value in data set [4] is recorded as “marked reduction in fluorescence”. In data set [2] (setting [6]), the IC50 came out at 44 ± 5 µM. The IC50 in data set [2] (setting [7]) was 44 µM. In data set [3] (50 μM added to cultures), the “Gtf enzyme inhibitory activity, glucan bands in zymogram” value is on record as “exhibit the best inhibitory effects” and the “production of Gtfs, protein level on SDS-PAGE” value was “showed an inhibitory effect on the production of Gtfs”. In addition, in data set [5], the “selectivity (index / fold) for biofilm over growth” value is given as “about 10”, the IC50 is 468 ± 16 µM and the “SI (selectivity index)” value was found to be 10.6.

One may read the Kd as a measure of binding affinity in units of concentration. High values mean weaker binding, low ones tighter binding. By IC50 is commonly meant the concentration needed to halve the response being measured. By melting point is commonly meant the temperature, or range, at which the solid turns liquid.
